Data reported in patent US9051342B2 (priority 2004, dated 2015).

Molecule `CC(C)c1ccc(-c2nn(-c3cccc(C(=O)O)c3)c(=O)s2)cc1` [Compound 284, 3-[5-(4-Isopropyl-phenyl)-2-oxo-[1,3,4]thiadiazol-3-yl]-benzoic acid] has a melting point of 220 to 221 °C.
For `O=C(O)c1cccc(-c2ccn(-c3ccccc3Cl)c2)c1` [Compound 198, 3-[1-(2-Chloro-phenyl)-1H-pyrrol-3-yl]-benzoic acid], the melting point was 198 to 200 °C.
`O=C(O)c1cccc(-n2cc(-c3ccc4ccccc4n3)cn2)c1` [Compound 123, 3-(4-Quinolin-2-yl-pyrazol-1-yl)-benzoic add] showed a melting point of 250 to 252 °C.
In the case of `O=C(O)c1cccc(-c2ncn(-c3ccccn3)n2)c1` [Compound 36, 3-(1-Pyridin-2-yl-1H-[1,2,4]triazol-3-yl)-benzoic acid], the melting point is reported as 241 to 244 °C.
`O=C(O)c1cccc(-n2cc(-c3cnc4ccccc4n3)cn2)c1` [Compound 122, 3-(4-Quinoxalin-2-yl-pyrazol-1-yl)-benzoic acid] gave a melting point of 325 to 326 °C.
In the case of `COc1ccc(-c2cn(-c3ccc(C(=O)O)cc3)nn2)cc1` [Compound 203, 4-[4-(4-Methoxy-phenyl)-[1,2,3]triazol-1-yl]-benzoic acid], the melting point is reported as 294 to 295 °C.
For `O=C(O)c1cccc(-c2ncn(-c3ccccc3F)n2)c1` [Compound 17, 3-[1-(2-Fluoro-phenyl)-1H-[1,2,4]triazol-3-yl]-benzoic acid], the melting point was 239 to 241 °C.
With `O=C(O)c1ccc(-n2cc(-c3cccc(Br)c3)cn2)cc1` [Compound 89, 4-[4-(3-Bromo-phenyl)-pyrazol-1-yl]-benzoic acid] the melting point was 247 to 248 °C.
`O=C(O)c1cccc(-n2cc3c(n2)-c2cccc(OC(F)F)c2CC3)c1` [Compound 183, 3-(6-Difluoromethoxy-4,5-dihydro-benzo[g]indazol-2-yl)-benzoic acid] showed a melting point of 235 to 237 °C.
`O=C(O)c1cccc(-c2cnn(-c3ccc(C(F)(F)F)cc3)c2)c1` [Compound 235, 3-[1-(4-Trifluoromethyl-phenyl)-1H-pyrazol-4-yl]-benzoic acid] gave a melting point of 218 to 220 °C.
Molecule `O=C(O)c1cccc(-c2ccn(-c3ccc([N+](=O)[O-])cc3)n2)c1` [Compound 168, 3-[1-(4-Nitro-phenyl)-1H-pyrazol-3-yl]-benzoic acid] has a melting point of 280 to 281 °C.
Molecule `O=C(O)c1cccc(-c2cnn(-c3ccc(F)cc3)c2)c1` [Compound 181, 3-[1-(4-Fluoro-phenyl)-1H-pyrazol-4-yl]-benzoic acid] has a melting point of 235 to 237 °C.
Work on `O=C(O)c1ccc(-c2ccn(-c3ccccc3F)c2)cc1` [Compound 151, 4-[1-(2-Fluoro-phenyl)-1H-pyrrol-3-yl]-benzoic acid] yielded a melting point of 202 to 204 °C.
With `O=C(O)c1cccc(-n2cc(-c3cccc(Br)c3)cn2)c1` [Compound 88, 3-[4-(3-Bromo-phenyl)-pyrazol-1-yl]-benzoic acid] the melting point was 177 to 178 °C.
Work on `O=C(O)c1cccc(-c2ncn(-c3ccc(N4CCCC4=O)cc3)n2)c1` [Compound 43, 3-{1-[4-(2-Oxo-pyrrolidin-1-yl)-phenyl]-1H-[1,2,4]triazol-3-yl}-benzoic acid] yielded a melting point of 270 to 273 °C.
In the case of `O=C(O)c1cccc(-n2cnc(-c3ccc(O)cc3)n2)c1` [Compound 9, 3-[3-(4-Hydroxy-phenyl)-[1,2,4]triazol-1-yl]-benzoic acid], the melting point is reported as 307 to 311 °C.
`O=C(O)c1cccc(-n2cc(-c3cccc(O)c3)cn2)c1` [Compound 207, 3-[4-(3-Hydroxy-phenyl)-pyrazol-1-yl]-benzoic acid] gave a melting point of 272 to 274 °C.
Work on `O=C(O)c1cccc(-n2cc(-c3cccc(OC(F)(F)F)c3)cn2)c1` [Compound 209, 3-[4-(3-Trifluoromethoxy-phenyl)-pyrazol-1-yl]-benzoic acid] yielded a melting point of 166 to 168 °C.
With `O=C(O)c1ccc(-n2cc(-c3ccccc3F)nn2)cc1` [Compound 264, 4-[4-(2-Fluoro-phenyl)-[1,2,3]triazol-1-yl]-benzoic acid] the melting point was 292 to 294 °C.
`COc1cccc(-c2ccn(-c3ccc(C(=O)O)cc3)n2)c1` [Compound 221, 4-[3-(3-Methoxy-phenyl)-pyrazol-1-yl]-benzoic acid] showed a melting point of 200 to 202 °C.
Work on `O=C(O)c1ccc(-c2ccn(-c3ccccc3Cl)c2)cc1` [Compound 197, 4-[1-(2-Chloro-phenyl)-1H-pyrrol-3-yl]-benzoic acid] yielded a melting point of 200 to 202 °C.
`O=C(O)c1cccc(-c2cnn(-c3ccc(OC(F)(F)F)cc3)c2)c1` [Compound 133, 3-[1-(4-Trifluoromethoxy-phenyl)-1H-pyrazol-4-yl]-benzoic acid] gave a melting point of 213 to 215 °C.
In the case of `COc1ccc2c(c1)Cc1cn(-c3cccc(C(=O)O)c3)nc1-2` [Compound 139, 3-(6-Methoxy-4H-indeno[1,2-c]pyrazol-2-yl)-benzoic acid], the melting point is reported as 272 to 273 °C.
Molecule `O=C(O)c1cccc(-c2ncn(-c3ccccc3Br)n2)c1` [Compound 30, 3-[1-(2-Bromo-phenyl)-1H-[1,2,4]triazol-3-yl]-benzoic acid] has a melting point of 245 to 247 °C.
With `O=C(O)c1cccc(-n2ccc(-c3ccccc3F)n2)c1` [Compound 169, 3-[3-(2-Fluoro-phenyl)-pyrazol-1-yl]-benzoic acid] the melting point was 166 to 167 °C.
Molecule `O=C(O)c1ccc(-n2cc(-c3cccc(Cl)c3)cn2)cc1` [Compound 211, 4-[4-(3-Chloro-phenyl)-pyrazol-1-yl]-benzoic acid] has a melting point of 252 to 255 °C.
Molecule `COc1cccc(-n2ccc(-c3cccc(C(=O)O)c3)n2)c1` [Compound 77, 3-[1-(3-Methoxy-phenyl)-1H-pyrazol-3-yl]-benzoic acid] has a melting point of 153 to 154 °C.
Work on `CC(C)c1ccc(-n2cc(-c3cccc(C(=O)O)c3)cn2)cc1` [Compound 228, 3-[1-(4-Isopropyl-phenyl)-1H-pyrazol-4-yl]-benzoic acid] yielded a melting point of 212 to 215 °C.
`O=C(O)c1cccc(-n2cc(-c3ccc([N+](=O)[O-])cc3)cn2)c1` [Compound 101, 3-[4-(4-Nitro-phenyl)-pyrazol-1-yl]-benzoic acid] gave a melting point of 274 to 276 °C.
With `O=C(O)c1ccc(-n2cc(-c3ccccc3F)cn2)cc1` [Compound 85, 4-[4-(2-Fluoro-phenyl)-pyrazol-1-yl]-benzoic acid] the melting point was 260 to 261 °C.
In the case of `O=C(O)c1cccc(-c2ccn(-c3ccc(F)cc3)n2)c1` [Compound 96, 3-[1-(4-Fluoro-phenyl)-1H-pyrazol-3-yl]-benzoic acid], the melting point is reported as 245 to 246 °C.
With `O=C(O)c1ccc(-n2cnc(-c3cccc(C(=O)O)c3)n2)cc1` [Compound 31, 4-[3-(3-Carboxy-phenyl)-[1,2,4]triazol-1-yl]-benzoic acid] the melting point was > 300 °C.
Work on `COc1ccc2c(c1)-c1nn(-c3cccc(C(=O)O)c3)cc1CC2` [Compound 143, 3-(8-Methoxy-4,5-dihydro-benzo[g]indazol-2-yl)-benzoic acid] yielded a melting point of 192 to 193 °C.
With `O=C(O)c1cccc(-n2ccc(-c3ccc(N4CCOCC4)cc3)n2)c1` [Compound 82, 3-[3-(4-Morpholin-4-yl-phenyl)-pyrazol-1-yl]-benzoic acid] the melting point was 230 to 235 °C.
Molecule `O=C(O)c1ccc(-n2cc(-c3ccc(F)cc3)nn2)cc1` [Compound 266, 4-[4-(4-Fluoro-phenyl)-[1,2,3]triazol-1-yl]-benzoic acid] has a melting point of 321 to 323 °C.
